Results taken from patent US20070031511A1, “Method of treatment” (priority 2003, published 2007).
“Also recorded” adds a separate entry of the source.

Tests used:
IMGE-5 cells [1] = assay: IMGE-5 cell proliferation, MTT assay; format: cell-based, mice; details: DFO 1 μM
IMGE-5 cells [2] = assay: Wound healing / cell migration assay; format: cell-based, mice
Protocol: The IMGE-5 cell line was established from the gastric mucosa of mice transgenic for a temperature-sensitive mutant of the SV40 large T antigen (Hollande et al, 2001). IMGE-5 cells were generally grown at 33° C. in DMEM containing 1 unit/ml γ-interferon, 10% FBS, 100 U/ml penicillin, and 100 μg/ml streptomycin (permissive conditions). For all experiments, cells were transferred to 39° C. in the same medium without […] (non-permissive conditions), where they display differentiated characteristics such as expression of functional adherens and tight junctions. All experiments have been performed on cells between passages 20 and 35.
In order to assess the effects of different stimuli on cell migration, wound healing experiments were performed as detailed elsewhere (Hollande et al, 1997). In brief, IMGE-5 cells were grown in 12-well plates in DMEM at 33° C. until they reached 80% confluence, then shifted to 39° C. and starved of serum for 24 h. The confluent monolayer was wounded using a 20 μl-pipette tip, and cells were then washed 3 times with phosphate-buffered saline (PBS: 2.7 mM KCl, 1.5 MM KH2PO4, 142 mM NaCl, and 10 mM Na2HPO4, pH 6.95) and treated with or without different compounds in DMEM with antibiotics. Morphology and migration of cells were observed and photographed immediately, and after treatment for 17 and 24 h. Wound width was measured at six different positions on the 24 h photographs, and averages calculated.

rectal mucosa = assay: Proliferation in the rectal mucosa of rectally defunctioned rats (metaphase-arrested cells); format: in vivo; details: DFO 400 mg/kg intraperitoneally thrice weekly, 4 weeks; Ggly 2.5 nmol/kg/hr
Protocol: DFO (400 mg/kg) was administered intraperitoneally thrice weekly, and bismuth ions were administered as colloidal bismuth subcitrate (135 mg/kg/12 hours) by oral gavage 5 days per week. After 4 weeks, the rats were injected with vincristine to arrest cycling cells in metaphase, and sacrificed 3 hrs later. Crypt heights in the rectal mucosa, and the number of metaphase arrested cells per crypt, were then determined microscopically.

hepatoma cell lines = details: Kicic et al, 2001; cited from earlier work
human hepatomas = details: Hann et al, 1992; cited from earlier work
CCK-2 receptor = biological target: T1, CCK-2 receptor (Homo sapiens, UniProt P32239); assay: Gamide-stimulated inositol phosphate production in COS-7 cells transfected with the CCK-2 receptor; format: cell-based; set-up: COS-7 cells transiently transfected with CCK-2 receptor cDNA; expressed in transfected cells; host or cells: COS-7; details: 1 μM DFO, 10 nM Gamide
T1 sequence (P32239 1-447): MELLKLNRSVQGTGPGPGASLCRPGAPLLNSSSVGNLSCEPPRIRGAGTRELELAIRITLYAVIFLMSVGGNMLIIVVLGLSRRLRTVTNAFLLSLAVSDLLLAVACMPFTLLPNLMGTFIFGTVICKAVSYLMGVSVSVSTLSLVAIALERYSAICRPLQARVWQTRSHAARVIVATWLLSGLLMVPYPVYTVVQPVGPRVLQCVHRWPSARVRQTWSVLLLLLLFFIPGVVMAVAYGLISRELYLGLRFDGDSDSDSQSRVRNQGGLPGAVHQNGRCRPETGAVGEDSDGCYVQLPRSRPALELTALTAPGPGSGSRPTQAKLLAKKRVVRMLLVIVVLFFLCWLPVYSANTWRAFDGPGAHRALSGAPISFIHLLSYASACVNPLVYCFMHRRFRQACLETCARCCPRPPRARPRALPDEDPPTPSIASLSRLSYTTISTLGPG
Protocol: Intracellular inositol phosphate production was determined as described previously (Qian et al, 1993). IMGE-5 cells (10^5 cells/ml) were plated in 24-multiwell culture plates in DMEM supplemented with 10% FBS, 200 IU/ml penicillin and 200 μg/ml streptomycin. 24 h later, cells were incubated with DMEM supplemented with antibiotics and Myo-[2-^3H]inositol (2.5 μCi/well) and shifted to 39° C. for 16 h. Cells were then washed with pre-warmed DMEM and incubated (20-30 minutes, 37° C.) with DMEM supplemented with 20 mM LiCl. Loaded cells were then washed in 1 ml of IP buffer (135 mM NaCl, 20 mM N-(2-hydroxyethyl)piperazine-N′-(2-ethanesulfonic acid), 2 mM CaCl2, 1.2 mM MgSO4, 1 mM ethylene glycol-bis(2-aminoethylether)-N,N,N′,N′-tetraacetic acid, 10 mM LiCl, and 0.5% bovine serum albumin, pH 7.45) and incubated with or without agonist in a final volume of 0.5 ml of IP buffer. After 1-h incubation at 37° C., the reaction was stopped by removing the incubation medium and adding 1 ml of a mixture of ethanol/HCl (2000:1; v/v). One ml of each aliquot was applied to a column containing 1.6 ml of a 1:2 (v/v) Dowex AG-1-X8 anion exchange resin in distilled water. The columns were washed with 4 ml of distilled water, followed by 4 ml of 40 mM HCOONH4, and inositol phosphates were eluted with 4 ml of 1 M HCOONH4. The radioactivity of each eluate was counted after addition of Complete phase combining system solution (Amersham, UK). For the positive control, IMGE-5 cells were incubated with a combination of 30 mM NaF and 10 μM AlCl3 under the same experimental conditions.
Gamide-stimulated inositol phosphate production was measured in COS-7 cells transfected with the CCK-2 receptor. […] Bismuth ions alone had no effect on inositol phosphate production in CCK-2 receptor-transfected COS-7 cells and HT29 cells, even at the highest concentration tested.
We then investigated the role of the individual glutamates in biological activity. The effects of the mutants GamideE7A and GamideE8,9A on inositol phosphate production in COS-7 cells transiently transfected with the CCK-2 receptor were compared.

IMGE-5 cells [3] = assay: IMGE-5 cell proliferation, [3H]-thymidine incorporation; format: cell-based, mice
Protocol: In some cases cell proliferation was also measured by [^3H]-thymidine incorporation as described previously (Oiry et al., 2000). Briefly, IMGE-5 cells (10^5/well) were seeded in 24-well plates in medium containing 10% FBS and 1 unit/ml γ-interferon. On the next day cells were serum starved and shifted to 39° C. for 24 hr. Cells were then incubated with or without various compounds at 39° C. for 17 h in medium supplemented with 0.2% bovine serum albumin only. Cells were incubated with 0.5 μCi of [^3H] thymidine in the same medium at 39° C. for 4 h, washed twice with PBS (2.7 mM KCl, 142 mM NaCl, 1.5 mM KH2PO4, 10 mM Na2HPO4, pH 6.95) containing 0.2% bovine serum albumin and incubated at 4° C. for 30 min with 5% trichloroacetic acid. Finally cells were washed with 95% ethanol to remove unincorporated [^3H] thymidine, and lysed with 1 M NaOH. Lysates were transferred to counting vials and neutralized with 1M HCl. The radioactivity of each lysate was counted in a β-counter after the addition of 10 ml of Pico-fluor 40 solution (Packard, Meriden, Conn.).
In some experiments IMGE-5 cells were seeded in a 96-well plate at a density of 3-5×10^3 cells/well in.DMEM containing 10% FBS, and cultured at 33° C.. On the following day, the cells were serum-starved at 33° C. for 24 h. […] The cells were cultured at 39° C. for 24 h, and then harvested using a NUNC cell harvester. The amount of ^3H-thymidine incorporated through DNA synthesis was detected with a β-counter (Packard, Meriden, Conn.). […]

[4] = 1H NMR titration of Ggly fragments with ferric citrate; format: binding; details: pH 5.3, 278 K, read-out: Apparent Kd for ferric ions from shift of the Glu10 amide resonance
Protocol: The peptides LE5AYG, LE5A, E5AY and E5A (approximately 2 mM) were dissolved in H2O with 5 or 10% ^2H2O. […] Sequence-specific ^1H NMR resonance assignments were made from two-dimensional nuclear Overhauser enhancement spectroscopy (NOESY) and total correlation spectroscopy (TOCSY).
The apparent dissociation constants, Kd, for the complexes between ferric ions and the nonapeptide LE5AYG or the octapeptide LE5AY were obtained from the change in chemical shift of the Glu10 amide proton on addition of ferric citrate using the program Sigmaplot (Jandel Scientific, San Rafael, Calif.), by linear regression of the data to the equation 1/δ=Kd/Δ·1/[Fe^3+]+1/Δ where δ is the change in chemical shift, Δ is the maximum change in chemical shift, and [Fe^3+] is the concentration of added ferric ions. Measurement of Inositol Phosphate Production
In order to define the ligands involved in ferric ion binding, we next investigated the effect of ferric ions on the NMR spectra of the peptides. Ferric ion titration experiments were carried out by addition of 20, 50, or 200 mM ferric citrate solution to the peptides. The pH was maintained at 5.3 by addition of small amounts of NaO^2H or ^2HCl. Concentration, pH, temperature and use of ferrric citrate were in keeping with the conditions that were employed in earlier examples in order to prevent precipitation of peptide or ferric hydroxide. […]

| Compound | Effect on Ggly-stimulated IMGE-5 cell proliferation (IMGE-5 cells [1]; MTT and thymidine assays) | Reduction of Gamide-stimulated IMGE-5 cell proliferation (IMGE-5 cells [1]; MTT, 72 h) | Effect on Ggly-stimulated IMGE-5 cell migration (IMGE-5 cells [2]; DFO 1 μM) | Effect on stimulation of proliferation of the rectal mucosa by Ggly (rectal mucosa) | Inhibition of proliferation of hepatoma cell lines in vitro (hepatoma cell lines) | Inhibition of human hepatomas (human hepatomas) | Effect on Gamide-stimulated inositol phosphate production (CCK-2 receptor) | Stimulation of cell migration compared with Ggly (IMGE-5 cells [2]; 100 nM peptide, 24 h) | Effect of DFO on peptide-stimulated migration (IMGE-5 cells [2]; 100 nM peptide, DFO in the medium) | S (%), maximum % stimulation (IMGE-5 cells [3]; IMGE cells, thymidine uptake, best fit at saturating concentration) | Stimulation of proliferation of IMGE cells (IMGE-5 cells [3]; incorporation of [3H]-thymidine) | Effect of DFO on proliferation induced by the peptide (IMGE-5 cells [3]; peptide 100 nM, plus or minus 1 μM DFO, [3H]-thymidine incorporation) | Kd [4] |
| --- | --- | --- | --- | --- | --- | --- | --- | --- | --- | --- | --- | --- | --- |
| CC(=O)N(O)CCCCCNC(=O)CCC(=O)N(O)CCCCCNC(=O)CCC(=O)N(O)CCCCCN [DFO, desferrioxamine] | completely blocked | 60% | completely blocked | significantly reduced | effective inhibitors | effective inhibitor | had no effect |  |  |  |  |  |  |
| LEEEEEAYG [LE5AYG] |  |  |  |  |  |  |  | more effective than Ggly | reversed by inclusion of DFO | 45.8% | significantly stimulated proliferation | completely blocked; also recorded: significantly blocked by DFO | 7 mM |
